Here are results for three compounds from paper PMC10683023, “Targeting Glial Cells by Organic Anion-Transporting Polypeptide 1C1 (OATP1C1)-Utilizing L-Thyroxine-Derived Prodrugs” (Journal of Medicinal Chemistry, 2023).

What is called Km is the concentration of substrate that gives half-maximal velocity.

Series [1] in a line: Enzymatic bioconversion in mouse liver S9 fraction. As to conditions: after 5 h incubation, 100 μM prodrug, 37 °C, mean ± SD, n = 3. Type of series: in vitro ADME. The protocol:
(§1) The rates of bioactivation of the prodrugs 1–8 in mouse and human liver S9 fractions, as well as in mouse primary astrocyte–microglia homogenate, were determined at +37 °C. The incubation mixtures were prepared by mixing liver S9 subcellular fraction or brain cell homogenate (final protein concentration 1.0 mg/mL) with isotonic Tris–HCl buffer (pH 7.4) and 10 mM prodrug stock solution in DMSO (the initial concentration of prodrugs was 100 μM and the DMSO concentration was […]). The mixture was incubated for 5 h, and the samples ([…]) were withdrawn at appropriate intervals. The enzymatic reaction was terminated by the addition of ice-cold acetonitrile ([…]), and the samples were centrifuged for 5 min at 12 000 rpm at room temperature and kept on ice until the supernatants were analyzed by the HPLC method described below. In blank reactions, the S9 fractions were replaced with the same volume of buffer. The pseudo-first-order half-lives (t1/2) for the rates of bioconversion of the prodrugs were calculated from the slope of the linear portion of the plotted logarithm of the remaining prodrug concentration versus time. The rates of bioactivation of prodrugs 1–8 in human plasma and mouse serum were determined at 37 °C as above by adding 10 mM stock solution of the prodrug to plasma/serum in a ratio of 1:10 and analyzed similarly to the samples from S9 fractions.
(§2) The amount of prodrug 1–8 was determined by the HPLC system, which consisted of an Agilent 1100 binary pump (Agilent Technologies Inc., Wilmington, DE), an 1100 micro vacuum degasser, an HP 1050 Autosampler, and an HP 1050 variable wavelength detector, operated at 230–240 nm. The chromatographic separations were achieved on an Agilent Zorbax SB-C18 analytical column (4.4 mm × 150 mm, 5 μm) (Agilent Technologies Inc., Wilmington, DE) by using isocratic elution of water containing 0.1% formic acid (pH ca. 3.0) and acetonitrile containing 0.1% formic acid with ratios of 50:50, 30:70, 40:60, 50:50, 50:50, 40:60, 40:60, and 30:70 (v/v), respectively, for prodrug 1–8. […] The lower limit of quantification for prodrugs 1–8 was 0.20 μM. These HPLC methods were also accurate, precise, and selective over the range of 0.5–20 μM.

The nature of series [2]: Enzymatic bioconversion in human liver S9 fraction. The class given is in vitro ADME. As to conditions: after 5 h incubation, 100 μM prodrug, 37 °C, mean ± SD, n = 3. As to the method:
as §1, §2

The nature of series [3]: Enzymatic bioconversion in mouse serum. Type of series: in vitro ADME. As to conditions: after 5 h incubation, 37 °C, mean ± SD, n = 3. As to the method:
as §1, §2

Series [4] is described as follows: Enzymatic bioconversion in human plasma. Type of series: in vitro ADME. As to conditions: after 5 h incubation, 37 °C, mean ± SD, n = 3. The protocol:
as §1, §2

Series [5] can be described thus: Enzymatic bioconversion in mouse primary astrocyte–microglia homogenate. Type of series: in vitro ADME. As to conditions: after 5 h incubation, 100 μM prodrug, 37 °C, mean ± SD, n = 3. The protocol:
as §1, §2

Series [6] concerns human U-87MG glioma cells. Description: Concentration-dependent cellular uptake into human U-87MG glioma cells. The class given is cell-based. As to conditions: 5–400 μM, 30 min, 37 °C. As to the method:
U-87MG (ATCC, HTB-14, unknown origin) was purchased from Lonza (Basel, Switzerland). The cells were cultured in standard conditions (37 °C, 5% CO2) using Dulbecco’s modified Eagle’s medium (DMEM) supplemented with L-glutamine (2.0 mM), heat-inactivated fetal bovine serum (FBS) (10%), penicillin (50 U/mL), and streptomycin (50 μg/mL). U-87MG cells (passages 8–25) were seeded at a density of 1 × 10^5 cells/well onto 24-well plates and used for the uptake experiments 1 day after seeding. All of the studies were carried out as three biological replicates from the same cell passage.
(§3) After removal of the culture medium, U-87MG human glioma cells and mouse primary astrocytes were carefully washed with prewarmed Hank’s balanced salt solution (HBSS) containing 125.0 mM NaCl (or choline chloride in Na^+ free conditions), 4.8 mM KCl, 1.2 mM MgSO4, 1.2 mM KH2PO4, 1.3 mM CaCl2, 5.6 mM glucose, and 25.0 mM 4-(2-hydroxyethyl)piperazine-1-ethanesulfonic acid (HEPES) with the pH adjusted to either 7.4 or pH 8.5 with 1 M NaOH (or KOH in sodium-free conditions). In the experiments at lower pH (4.5–6.5), 25.0 mM HEPES was replaced by 2-(N-morpholino) ethanesulfonic acid (MES), and the pH was adjusted to 4.5, 5.5, and 6.5 by 1.0 M NaOH. Preincubation was done with 500 μL of prewarmed HBSS at 37 °C for 10 min before adding the substrate for the uptake experiments. The functionality of OATP1C1 in human glioma U-87MG cells was studied with a known substrate (L-thyroxine, T4) and of oatp1a4, 1a5, and 1a6 in mouse primary astrocytes with [6,7-^3H(N)]-estrone-3-sulfate (ES) by incubating the uptake solution (250 μL in HBSS) consisting of 5–400 μM of the substrate at 37 °C for 30 min. After incubation, the uptake was stopped by adding 500 μL of ice-cold HBSS, and the cells were washed two times with ice-cold HBSS (2 × 500 μL). The cells were then lysed with 500 μL of 0.1 M NaOH (60 min), the lysate was neutralized, and the protein was precipitated with acidic acetonitrile (ACN with 4.8% formic acid). The supernatants were analyzed by the high-performance liquid chromatography (HPLC) methods described below (T4) or by using a liquid scintillation counter (MicroBeta2 counter, PerkinElmer, Waltham, MA) (ES). The concentrations of T4 and ES were calculated from the spiked standard curve and normalized with the protein concentrations. The protein concentrations on each plate were determined as a mean of three samples by Bio-Rad Protein Assay, based on the Bradford dye-binding method, using bovine serum albumin (BSA) as a standard protein and measuring the absorbance (595 nm) by a multiplate reader (EnVision, PerkinElmer, Inc., Waltham, MA). The OATP-mediated uptake was confirmed by changing the pH of the uptake buffer in the absence of sodium ions, and in the case of OATP1C1 in human U-87MG cells, the uptake of T4 (100 μM) was studied in the presence of competing OATP1C1-ligands, diclofenac and flufenamic acid (100 μM), and in the case of oatp1a4/1a5/1a6 in mouse primary astrocytes, the uptake of ES (100 μM) was studied in the presence of competing OATO1A2-ligand, naringin (100 μM).
Cellular uptake of prodrugs 1–8 was studied as described for L-thyroxine above by adding compounds at a concentration of 5–400 μM in prewarmed HBSS buffer (250 μL) on the cell layer and incubating at 37 °C for 30 min (uptake was linear with all compounds up to 30 min). Subsequently, the cells were washed three times with ice-cold HBSS and lysed with 500 μL of 0.1 M NaOH (60 min). The lysate was neutralized; the proteins were precipitated with acidic ACN (containing 4.8% formic acid), and the supernatants were analyzed by the (HPLC) methods described below. The concentrations of each prodrug normalized to protein concentration were calculated from the standard curve prepared by spiking known concentrations of compounds into ACN-precipitated cell lysate. […]

The subject of series [7] is mouse primary astrocytes. Description: Concentration-dependent cellular uptake into mouse primary astrocytes. The class given is cell-based. As to conditions: 5–400 μM. As to the method:
The mouse primary astrocytes were isolated from neonatal pups (P0-2) of wild-type mice (C57BL/6JOlaHsd) as previously described, in compliance with the European Commission Directive 2010/63/EU and approved by the Institutional Animal Care and Use Committee of the University of Eastern Finland (Animal Usage Plan numbers: EKS-006-2019).[37] Neonatal pups were decapitated, and their brains were collected in an ice-cold HBSS buffer. After tissue dissociation and washing, cells were plated on poly-L-lysine-coated flasks and cultured in DMEM supplemented with FBS, L-glutamine, and penicillin/streptomycin (50 μg/mL) for 24 h. Debris and dead cells were removed by DPBS rinsing. After 7 days, microglial cells were removed, and the remaining astrocytic monolayer was collected by trypsinization using 0.05% trypsin-ethylenediaminetetraacetic acid (EDTA) (Gibco), pelleted, and stored at −80 °C for subsequent analysis. For the cell uptake experiments, the astrocytes were seeded on 24-well plates with a density of 10^4 cells/well 3 days before the experiments.
as §3
Cellular uptake of prodrugs 1–8 was studied as described for L-thyroxine above by adding compounds at a concentration of 5–400 μM in prewarmed HBSS buffer (250 μL) on the cell layer and incubating at 37 °C for 30 min (uptake was linear with all compounds up to 30 min). Subsequently, the cells were washed three times with ice-cold HBSS and lysed with 500 μL of 0.1 M NaOH (60 min). […]

Consider `CC(C(=O)Oc1c(I)cc(C[C@H](N)C(=O)O)cc1I)c1cccc(C(=O)c2ccccc2)c1` (mixture of isomers) [Prodrug 1, (2S)-2-Amino-3-(4-((2-(3-benzoylphenyl)propanoyl)oxy)-3,5-diiodophenyl)propanoic acid], for which the “Enzymatic stability, remaining percentage, mouse liver S9” value in series [1] amounted to 74.30 ± 7.50%. Also, in series [2], the “Enzymatic stability, remaining percentage, human liver S9” value is listed as 78.13 ± 2.17%. For the same compound, the “Enzymatic stability, remaining percentage, mouse serum” value in series [3] is listed as 94.32 ± 1.27%. The “Enzymatic stability, remaining percentage, human plasma” value in series [4] was found to be 92.01 ± 5.02%. Also, in series [5], the “Enzymatic stability, remaining percentage, mouse brain cell homogenate” value turned out to be 85.76 ± 2.74%. In addition, the Km in series [6] is 174 µM; in series [6] (listed as PD1) it was around 174 µM.
With `C[C@]12CC[C@@H]3c4ccc(OS(=O)(=O)O)cc4CC[C@H]3[C@@H]1CCC2=O` [ES, [6,7-^3H(N)]-estrone-3-sulfate, reference compound], the Km in series [7] (30 min, 37 °C) is 703 ± 227 µM. Further, the “Vmax, ES uptake into mouse primary astrocytes” value in series [7] (Figure 2B) stood at 0.22 ± 0.05 pmol/min/mg.
On to `N[C@@H](Cc1cc(I)c(Oc2cc(I)c(O)c(I)c2)c(I)c1)C(=O)O` [L-Thyroxine T4, L-thyroxine], for which, in series [6], the Km amounted to 111 ± 32 µM and the “Vmax, cellular uptake, U-87MG” value turned out to be 8.86 ± 1.33 nmol/min/mg. In series [7] (30 min, 37 °C), the Km worked out at 1250 ± 230 µM and the “Vmax, cellular uptake, astrocytes” value came out at 9.7 ± 6.1 nmol/min/mg.
